Measured values: US20140316217A1, “SYSTEM AND METHOD FOR MONITORING ANESTHESIA AND SEDATION USING MEASURES OF BRAIN COHERENCE AND SYNCHRONY” (priority 2013, published 2014)
Values joined by “and” are separate entries in the source; they are usually repeats but may differ in a detail not shown here. Equal entries are not always repeated.

Legend:
volunteers [1] = conditions: for frequency range of increase in coherence on the coherogram compared to baseline: sedation
volunteers [2] = conditions: for frequency range of increased power in the spectrogram compared to baseline: sedation, visually evident
Description: (§1) The power spectral density, also referred to as the power spectrum or spectrum, quantifies the frequency distribution of energy or power within a signal. The spectrogram is a time-varying version of the spectrum. […] In these spectrograms, frequencies are arranged along the y-axis, and time along the x-axis, and power is indicated by color on a decibel (dB) scale. […] Spectra and spectrograms were computed using the multitaper method, implemented in the Chronux toolbox (http://chronux.orq). The multitaper method was chosen specifically because it allows the spectral resolution to be set precisely, which is desirable in observing many anesthesia-related phenomena. Moreover, for a particular choice of spectral resolution, the multitaper method offers lower bias and lower variance than traditional nonparametric spectral estimation methods.
(§2) Group-level spectrograms were computed by taking the median across volunteers. Spectra were also calculated for selected EEG epochs. The resulting spectra were then averaged for all epochs, and 95% confidence intervals were computed via taper-based jackknife techniques. The spectral analysis parameters included window length T=4 s with 0 s overlap, time-bandwidth product TW=3, number of tapers K=5, and spectral resolution 2 W of 1.5 Hz. Peak power, and its frequency, was estimated for the dex-spindle, travelling peak, and frontal alpha oscillations for each individual subject. Averages across subjects were performed to obtain the group-level peak power and frequency for these oscillations.
(§3) To compare spectral and coherence estimates between groups, jackknife-based methods were used, namely the two-group test for spectra (TGTS), and the two-group test for coherence (TGTC), as implemented by the Chronux toolbox (http://www.chronukorg). This method accounts for the underlying spectral resolution of the spectral and coherence estimates, and considers differences to be significant if they are present for contiguous frequencies over a range greater than the spectral resolution 2 W. Specifically, for frequencies f>2 W, the null hypothesis was rejected only if the test statistic exceeded the significance threshold over a contiguous frequency range ≧2 W. For frequencies 0≦f≦2 W, to account for the properties of multitaper spectral estimates at frequencies close to zero, the null hypothesis was rejected only if the test statistic exceeded the significance threshold over a contiguous frequency range from 0 to max(f,W)≦2 W. A significance threshold of p<0.05 was selected for within group comparisons and p<0.001 for between group comparisons, applying a Bonferonni correction for multiple comparisons where appropriate.
Volunteers were instructed to close their eyes throughout the study to avoid eye-blink artifacts in the EEG. Volunteers were presented with auditory stimuli during the study and asked to respond by button presses to assess the level of conscious behavior. The stimuli consisted of the volunteer's name presented every two minutes. Button-press stimuli were recorded using a custom-built computer mouse with straps fitted to hold the first and second fingers in place over the mouse buttons. The mouse was also lightly strapped to the subject's hand using tape and an arterial line board to ensure that responses could be recorded accurately.
We applied an anti-aliasing filter and down-sampled the EEG data to 250 Hz before analysis. EEG signals were re-montaged to a nearest-neighbor Laplacian reference, using distances along the scalp surface to weigh neighboring electrode contributions. First, 2-minute EEG segments were selected from all subjects during the awake, eyes closed baseline. Eye closure facilitates distinguishing between normal awake, eyes-closed occipital alpha oscillations and the frontal alpha oscillations associated with anesthesia induced altered arousal. EEG data segments were selected based on the behavioral response.

patient = conditions: anesthetized with ketamine alone or in combination with other anesthetic agents; cited from earlier work
[3] = test system: dopaminergic arousal pathway; assay: Methylphenidate-induced emergence from isoflurane general anesthesia; plethysmography and blood gas experiments; type: in vivo
Description: MPH can be used to restore consciousness, induce electroencephalogram changes consistent with arousal, and increase respiratory drive. The behavioral and respiratory effects induced by methylphenidate can be inhibited by droperidol, supporting the evidence that methylphenidate induces arousal by activating a dopaminergic arousal pathway.

patients [4] = assay: Frontal EEG spectral analysis during sevoflurane and propofol general anesthesia (patients, Sedline monitor); type: in vivo, human; conditions: mean±std
Description: as §1, §2, §3

patients [5] = assay: Frontal EEG coherence analysis during sevoflurane and propofol general anesthesia (patients, Sedline monitor); type: in vivo, human
[6] = dexmedetomidine sedation, propofol-induced unconsciousness
[7] = dexmedetomidine sedation, mean±std
[8] = propofol-induced unconsciousness, dexmedetomidine sedation
[9] = general anesthesia, P<0.001 TGTC
[10] = propofol-induced unconsciousness

## Cc1cccc([C@H](C)c2cnc[nH]2)c1C [dexmedetomidine]
Volunteers [1]; dexmedetomidine sedation
  coherence peak frequency (dex-spindle): 13.3 Hz
  peak coherence (dex-spindle): 0.78±0.08
Volunteers [1]; [6]
  frequency range of decrease in coherence on the coherogram compared to baseline: 0.1-1 Hz
Volunteers [1]
  frequency range of increase in coherence on the coherogram compared to baseline: 1-15 Hz
Volunteers [2]; dexmedetomidine sedation, P<0.05 TGTS
  frequency range in which EEG power was lower than baseline: 17.4-40 Hz
Volunteers [2]; [7]
  dex-spindle oscillation peak frequency (EEG power): 13.1 Hz and ~13 Hz
  dex-spindle oscillation peak power: −10.2 dB
Volunteers [2]; dexmedetomidine sedation, summary
  frequency at which maximum power and coherence of spindles occur: 13-14 Hz
Volunteers [2]; [8]
  slow oscillations power: 1.8 dB
Volunteers [2]
  frequency range of increased power in the spectrogram compared to baseline: 2-15 Hz

## CNC1(c2ccccc2Cl)CCCCC1=O (centres unmarked) [ketamine]
patient
  BIS values: high BIS values

## COC(=O)C(c1ccccc1)C1CCCCN1 (centres unmarked) [methylphenidate]
[3]; isoflurane general anesthesia
  emergence from general anesthesia: actively induces emergence from isoflurane general anesthesia
[3]; plethysmography and blood gas experiments
  minute ventilation: increases minute ventilation

## CC(C)c1cccc(C(C)C)c1O [propofol]
Patients [4]
  alpha oscillation peak frequency (EEG power): 10.3 Hz
  alpha oscillation peak power: 2.1 dB
Patients [5]; general anesthesia
  alpha oscillation coherence peak frequency: 10.2 Hz
Patients [5]; [9]
  frequency range in which propofol exhibited increased EEG coherence versus sevoflurane: 11.7-19.5 Hz
Patients [5]; propofol general anesthesia
  alpha oscillation peak coherence: 0.71 dB
Volunteers [1]; P<0.0005 TGTC
  frequency range in which coherence was higher during propofol-induced unconsciousness than dexmedetomidine sedation: 9.5-11.7 Hz
  frequency ranges in which coherence was larger during propofol-induced sedation than dexmedetomidine sedation: 19.8-26.4 Hz and 26.9-29.3 Hz
Volunteers [1]; [6]
  frequency range of decrease in coherence on the coherogram compared to baseline: 0.1-1 Hz
Volunteers [1]; propofol peak max (unconsciousness), P<0.025 TGTC
  frequency range of decreased slow oscillation coherence versus baseline: 0.1-1.7 Hz
Volunteers [1]; propofol sedation
  coherence peak frequency (traveling-peak): 16.1 Hz
  peak coherence (traveling-peak): 0.69±0.05
Volunteers [1]; [10]
  alpha oscillation peak coherence: 0.85±0.05
  centre of the narrow band of alpha oscillation coherence: ~10 Hz
Volunteers [1]; propofol-induced unconsciousness, P<0.025 TGTC
  frequency range of significant increase in coherence versus baseline: 4-15.9 Hz
Volunteers [1]
  frequency range of increase in coherence on the coherogram compared to baseline: 1-25 Hz
Volunteers [2]; [10]
  frontal alpha oscillations power: 2.5 dB
  size of slow oscillations compared with dexmedetomidine sedation: almost an order of magnitude larger
Volunteers [2]; [8]
  slow oscillations power: 19.2 dB
Volunteers [2]
  frequency range of increased power in the spectrogram compared to baseline: 1-25 Hz

## FCOC(C(F)(F)F)C(F)(F)F [sevoflurane]
Patients [4]
  alpha oscillation peak frequency (EEG power): 9.2 Hz
  alpha oscillation peak power: 4.3 dB
Patients [5]; general anesthesia
  alpha oscillation coherence peak frequency: 9.8 Hz
  theta coherence peak frequency: 4.9 Hz
  theta peak coherence: 0.58±0.1
Patients [5]; [9]
  frequency range in which sevoflurane exhibited increased EEG coherence versus propofol: 3.41-10.7 Hz
Patients [5]; general anesthesia, summary
  frequency at which maximum power and coherence of coherent alpha oscillations occur: 10-12 Hz
Patients [5]; sevoflurane anesthesia
  frequency of coherent theta oscillations: ~5 Hz
Patients [5]; sevoflurane general anesthesia
  alpha oscillation peak coherence: 0.73±0.1
